Measured values: patent US8895695B2, “Template-fixed beta-hairpin peptidomimetics with CXCR4 antagonizing activity” (priority 2003, dated 2014)
Read-outs that look alike come from different tables or passages of the source. Bridge positions count the residues as written; N and C are the ends. Square brackets hold non-standard residues; d marks the D form. Peptide text beside a SMILES is read from it. 2Nal = N[C@@H](Cc1ccc2ccccc2c1)C(=O)O; Cit = NC(=O)NCCC[C@H](N)C(=O)O

What was measured:
[1] = tested on: human red blood cells (hRBC); assay: Hemolysis; format: cell-based
Experimental: The peptides were tested for their hemolytic activity against human red blood cells (hRBC). Fresh hRBC were washed three times with phosphate buffered saline (PBS) by centrifugation for 10 min at 2000×g. Peptides at a concentration of 100 μM were incubated with 20% v/v hRBC for 1 hour at 37° C. The final erythrocyte concentration was approximately 0.9×10^9 cells per ml. A value of 0% resp. 100% cell lysis was determined by incubation of the hRBC in the presence of PBS alone and respectively 0.1% Triton X-100 in H2O. The samples were centrifuged and the supernatant was 20-fold diluted in PBS buffer and the optical density (OD) of the sample at […] was measured. The 100% lyses value (OD540H2O) gave an OD540 of approximately 1.3-1.8. Percent hemolysis was calculated as follows: (OD540peptide/OD540H2O)×100%.

[2] = in vitro; details: human
[3] = target: CXCR4 (Homo sapiens, UniProt P61073); assay: Ca2+-assay method 2 (Flexstation, SDF-1 induced calcium mobilization); format: cell-based; set-up: expressed in transfected cells; host or cells: mouse pre-B cell line 300-19; details: method 2 (Ex. 54-160), mouse pre-B cell line 300-19 with human CXCR4, 10 nM SDF-1
Experimental: 2.2. Ca^2+-Assay: CXCR4-Antagonizing Activity of the Peptides.
The cells were batch loaded with the Calcium 3 Assay kit (Molecular Devices) in assay buffer (Hanks Balanced salt solution, HBSS, 20 mM HEPES, pH 7.4, 0.1% BSA) for 1 h at room temperature and then 200,000 labeled cells were dispensed into black 96 well assays plates (Costar No. 3603). A 20-fold concentrated solution of peptide in assay buffer was added to the cells and the whole plate was centrifuged to settle the cells to the bottom of the wells. Calcium mobilization induced by 10 nM stromal-derived factor-1 (SDF-1) was measured in the Flexstation 384 (excitation, 485 nM; emission, 525 nM) for 90 seconds. A maximal change in fluorescence response above baseline was used to calculate antagonist activity. The data for dose response curves (antagonist concentration versus % maximum response) were fitted to a four parameter logistic equation using SoftmaxPro 4.6 (Molecular Devices), from which IC50% values were calculated.

[4] = read-out: IC50 (nM) Ca^2+ assay
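For GI50 in this document: MTT reduction read as absorbance at 595 nm, blank-corrected and expressed as percent growth relative to the time-zero cell reading, triplicate wells per concentration.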

Chain of CXCR4 (P61073 whole entry): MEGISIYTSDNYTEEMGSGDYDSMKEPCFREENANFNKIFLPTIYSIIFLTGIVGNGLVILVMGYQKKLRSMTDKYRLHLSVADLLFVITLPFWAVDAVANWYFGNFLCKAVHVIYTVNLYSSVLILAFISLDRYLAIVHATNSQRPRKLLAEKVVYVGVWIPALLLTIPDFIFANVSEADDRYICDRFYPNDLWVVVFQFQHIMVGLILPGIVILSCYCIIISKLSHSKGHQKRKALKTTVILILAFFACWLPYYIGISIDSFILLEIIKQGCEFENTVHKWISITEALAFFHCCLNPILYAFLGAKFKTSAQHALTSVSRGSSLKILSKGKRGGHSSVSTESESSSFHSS

`C[C@@H]1NC(=O)[C@H](Cc2ccc(O)cc2)NC(=O)[C@@H]2CSSC[C@H](NC(=O)[C@H](CCCNC(N)=O)NC(=O)[C@H](CCCNC(=N)N)NC(=O)[C@H](Cc3ccc(O)cc3)NC(=O)[C@@H]3CCCN3C(=O)[C@H]3CCCN3C(=O)[C@H](CCCCN)NC1=O)C(=O)N[C@@H](CCCNC(=N)N)C(=O)NCC(=O)N1CCC[C@@H]1C(=O)N[C@@H](CCCNC(=N)N)C(=O)N[C@@H](CCCNC(=N)N)C(=O)N[C@@H](Cc1ccc3ccccc3c1)C(=O)N2` [Ex. 80] (cyclo(YR[Cit]CRG[dP]RR[2Nal]CYAK[dP]P); disulfide 4-11) showed a Hemolysis at 100 μM [1] of 0.1%, a GI50 at 48 h [2] of 44000 nM and an IC50 [3, 4] of 2.9 nM.

`N=C(N)NCCC[C@@H]1NC(=O)[C@@H]2CSSC[C@H](NC(=O)[C@H](Cc3ccc(O)cc3)NC(=O)[C@H](CCCNC(=N)N)NC(=O)[C@H](CCCNC(=N)N)NC(=O)[C@H]3CCCN3C(=O)CNC1=O)C(=O)N[C@@H](Cc1ccc(O)cc1)C(=O)N[C@@H](CCC(N)=O)C(=O)N[C@@H](CCCCN)C(=O)N[C@H](CCC(N)=O)C(=O)N1CCC[C@H]1C(=O)N[C@@H](Cc1ccc(O)cc1)C(=O)N[C@@H](CCCNC(=N)N)C(=O)N[C@@H](CCCNC(N)=O)C(=O)N2` [Ex. 149] (cyclo(YR[Cit]CRG[dP]RRYCYQK[dQ]P); disulfide 4-11) showed a Hemolysis at 100 μM ([1]; percent hemolysis, 100 μM peptide, 20% v/v hRBC, 1 hour at 37° C.) of 0%, a GI50 at 48 h [2] greater than 100000 nM and an IC50 ([3]; IC50 (nM) Ca^2+ assay) of 1 nM.

Compound `N=C(N)NCCC[C@@H]1NC(=O)[C@@H]2CSSC[C@H](NC(=O)[C@H](Cc3ccc4ccccc4c3)NC(=O)[C@H](CCCNC(=N)N)NC(=O)[C@H](CCCNC(=N)N)NC(=O)[C@H]3CCCN3C(=O)CNC1=O)C(=O)N[C@@H](Cc1ccc(O)cc1)C(=O)N[C@@H](CCCNC(=N)N)C(=O)N[C@@H](CCCCN)C(=O)N1CCC[C@@H]1C(=O)N1CCC[C@H]1C(=O)N[C@@H](Cc1ccc(O)cc1)C(=O)N[C@@H](CCCNC(=N)N)C(=O)N[C@@H](CCCNC(N)=O)C(=O)N2` [compound 57] (cyclo(YR[Cit]CRG[dP]RR[2Nal]CYRK[dP]P); disulfide 4-11) has a Hemolysis at 100 μM [1] of 0.1%, a GI50 at 48 h [2] of 33000 nM and an IC50 [3, 4] of 4.2 nM.

For `CC(C)C[C@@H]1NC(=O)[C@H](CCCNC(=N)N)NC(=O)[C@H](Cc2ccc(O)cc2)NC(=O)[C@@H]2CCCN2C(=O)[C@H]2CCCN2C(=O)[C@H](CCCCN)NC(=O)[C@H](CCC(N)=O)NC(=O)[C@H](Cc2ccc(O)cc2)NC(=O)[C@@H]2CSSC[C@H](NC1=O)C(=O)N[C@@H](CCCNC(=N)N)C(=O)NCC(=O)N1CCC[C@@H]1C(=O)N[C@@H](CCCNC(=N)N)C(=O)N[C@@H](CCCNC(=N)N)C(=O)N[C@@H](Cc1ccc3ccccc3c1)C(=O)N2` [Ex. 97] (cyclo(YRLCRG[dP]RR[2Nal]CYQK[dP]P); disulfide 4-11), the Hemolysis at 100 μM [1] was 0.8%, the GI50 at 48 h [2] was 44000 nM and the IC50 [3, 4] was 4.3 nM.

Work on `N=C(N)NCCC[C@@H]1NC(=O)[C@@H]2CSSC[C@H](NC(=O)[C@H](Cc3ccc4ccccc4c3)NC(=O)[C@H](CCCNC(=N)N)NC(=O)[C@H](CCCNC(=N)N)NC(=O)[C@H]3CCCN3C(=O)CNC1=O)C(=O)N[C@@H](Cc1ccc(O)cc1)C(=O)N[C@@H](CCC(N)=O)C(=O)N[C@@H](CCCCN)C(=O)N1CCC[C@@H]1C(=O)N1CCC[C@H]1C(=O)N[C@@H](CCC(N)=O)C(=O)N[C@@H](CCCNC(=N)N)C(=O)N[C@@H](CCCNC(N)=O)C(=O)N2` [Ex. 62] (cyclo(QR[Cit]CRG[dP]RR[2Nal]CYQK[dP]P); disulfide 4-11) yielded a Hemolysis at 100 μM [1] of 0.1%, a GI50 at 48 h [2] of 65000 nM and an IC50 [3, 4] of 1.8 nM.

Compound `CSCC[C@@H]1NC(=O)[C@H](Cc2ccc(O)cc2)NC(=O)[C@@H]2CSSC[C@H](NC(=O)[C@H](CCCNC(N)=O)NC(=O)[C@H](CCCNC(=N)N)NC(=O)[C@H](Cc3ccc(O)cc3)NC(=O)[C@@H]3CCCN3C(=O)[C@H]3CCCN3C(=O)[C@H](CCCCN)NC1=O)C(=O)N[C@@H](CCCNC(=N)N)C(=O)NCC(=O)N1CCC[C@@H]1C(=O)N[C@@H](CCCNC(=N)N)C(=O)N[C@@H](CCCNC(=N)N)C(=O)N[C@@H](Cc1ccc3ccccc3c1)C(=O)N2` [Ex. 83] (cyclo(YR[Cit]CRG[dP]RR[2Nal]CYMK[dP]P); disulfide 4-11) has a Hemolysis at 100 μM [1] of 0.1%, a GI50 at 48 h [2] of 48000 nM and an IC50 [3, 4] of 3.7 nM.

Compound `N=C(N)NCCC[C@@H]1NC(=O)[C@@H]2CSSC[C@H](NC(=O)[C@H](Cc3ccc4ccccc4c3)NC(=O)[C@H](CCCNC(=N)N)NC(=O)[C@H](CCCNC(=N)N)NC(=O)[C@H]3CCCN3C(=O)CNC1=O)C(=O)N[C@@H](Cc1ccc(O)cc1)C(=O)N[C@@H](CCC(N)=O)C(=O)N[C@@H](CC(N)=O)C(=O)N1CCC[C@@H]1C(=O)N1CCC[C@H]1C(=O)N[C@@H](Cc1ccc(O)cc1)C(=O)N[C@@H](CCCNC(=N)N)C(=O)N[C@@H](CCCNC(N)=O)C(=O)N2` [Ex. 84] (cyclo(YR[Cit]CRG[dP]RR[2Nal]CYQN[dP]P); disulfide 4-11) has a Hemolysis at 100 μM [1] of 0%, a GI50 at 48 h [2] of 62000 nM and an IC50 [3, 4] of 3.9 nM.

Compound `N=C(N)NCCC[C@@H]1NC(=O)[C@@H]2CSSC[C@H](NC(=O)[C@H](Cc3c[nH]c4ccccc34)NC(=O)[C@H](CCCNC(=N)N)NC(=O)[C@H](CCCNC(=N)N)NC(=O)[C@H]3CCCN3C(=O)CNC1=O)C(=O)N[C@@H](Cc1ccc(O)cc1)C(=O)N[C@@H](CCCNC(N)=O)C(=O)N[C@@H](CCCCN)C(=O)N1CCC[C@@H]1C(=O)N1CCC[C@H]1C(=O)N[C@@H](Cc1ccc(O)cc1)C(=O)N[C@@H](Cc1c[nH]cn1)C(=O)N[C@@H](CCCNC(N)=O)C(=O)N2` [Ex. 105] (cyclo(YH[Cit]CRG[dP]RRWCY[Cit]K[dP]P); disulfide 4-11) has a Hemolysis at 100 μM [1] of 0%, a GI50 at 48 h [2] of 49000 nM and an IC50 [3, 4] of 0.62 nM.

`N=C(N)NCCC[C@@H]1NC(=O)[C@@H]2CSSC[C@H](NC(=O)[C@H](Cc3ccc4ccccc4c3)NC(=O)[C@H](CCCNC(=N)N)NC(=O)[C@H](CCCNC(=N)N)NC(=O)[C@H]3CCCN3C(=O)CNC1=O)C(=O)N[C@@H](Cc1ccc(O)cc1)C(=O)N[C@@H](Cc1ccc(O)cc1)C(=O)N[C@@H](CCCCN)C(=O)N1CCC[C@@H]1C(=O)N1CCC[C@H]1C(=O)N[C@@H](Cc1ccc(O)cc1)C(=O)N[C@@H](CCCNC(=N)N)C(=O)N[C@@H](CCCNC(N)=O)C(=O)N2` [Ex. 59] (cyclo(YR[Cit]CRG[dP]RR[2Nal]CYYK[dP]P); disulfide 4-11) showed a Hemolysis at 100 μM [1] of 0.1%, a GI50 at 48 h [2] of 33000 nM and an IC50 [3, 4] of 7.8 nM.

In the case of `C[C@@H](O)[C@@H]1NC(=O)[C@H](Cc2ccc(O)cc2)NC(=O)[C@@H]2CSSC[C@H](NC(=O)[C@H](CCCNC(N)=O)NC(=O)[C@H](CCCNC(=N)N)NC(=O)[C@H](Cc3ccc(O)cc3)NC(=O)[C@@H]3CCCN3C(=O)[C@H]3CCCN3C(=O)[C@H](CCCCN)NC1=O)C(=O)N[C@@H](CCCNC(=N)N)C(=O)NCC(=O)N1CCC[C@@H]1C(=O)N[C@@H](CCCNC(=N)N)C(=O)N[C@@H](CCCNC(=N)N)C(=O)N[C@@H](Cc1ccc3ccccc3c1)C(=O)N2` [Ex. 133] (cyclo(YR[Cit]CRG[dP]RR[2Nal]CYTK[dP]P); disulfide 4-11), the Hemolysis at 100 μM [1] was 0.1%, the GI50 at 48 h [2] was 45000 nM and the IC50 [3, 4] was 5.3 nM.

`N=C(N)NCCC[C@@H]1NC(=O)[C@@H]2CSSC[C@H](NC(=O)[C@H](Cc3c[nH]c4ccccc34)NC(=O)[C@H](CCCNC(=N)N)NC(=O)[C@H](CCCNC(=N)N)NC(=O)[C@H]3CCCN3C(=O)CNC1=O)C(=O)N[C@@H](Cc1ccc(O)cc1)C(=O)N[C@@H](CCCNC(N)=O)C(=O)N[C@@H](CCCCN)C(=O)N1CCC[C@@H]1C(=O)N1CCC[C@H]1C(=O)N[C@@H](Cc1ccc(O)cc1)C(=O)N[C@@H](CCCNC(=N)N)C(=O)N[C@@H](CCCNC(N)=O)C(=O)N2` [Ex. 123] (cyclo(YR[Cit]CRG[dP]RRWCY[Cit]K[dP]P); disulfide 4-11) showed a Hemolysis at 100 μM [1] of 0%, a GI50 at 48 h [2] of 80000 nM and an IC50 [3, 4] of 10 nM.
